Laboratory results from the supplement of paper PMC11061612.

Legend:
[1] = compound: C[C@@H](Nc1cc(F)cc(F)c1)c1cc(C(=O)N(C)C)cc2c(=O)cc(N3CCOCC3)oc12 [AZD8186]; details: max 10 µM
Summary of the method: (§1)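 Cancer cell lines were dosed for 72 hours (final DMSO typically 0.2%) after 24 hours at 37°C and 5% CO2 in 1536-well plates containing 7.5 μl DMEM/F12 or RPMI with 10% FBS. Viability came from CellTiter-Glo 2.0 luminescence, scaled between blank-well and DMSO-well means, and dose responses were fitted to a two-parameter logistic curve with a non-linear mixed effects model. The single-agent IC50 was obtained from this fit.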

[2] = compound: CC(=O)O[C@H]1C(=O)[C@@]2(C)[C@H]([C@H](OC(=O)c3ccccc3)[C@]3(O)C[C@H](OC(=O)[C@H](O)[C@@H](NC(=O)c4ccccc4)c4ccccc4)C(C)=C1C3(C)C)[C@]1(OC(C)=O)CO[C@@H]1C[C@@H]2O [Paclitaxel]; details: max 3 µM
Summary of the method: as §1

[3] = compound: C1CN(CCC1(C(=O)N[C@@H](CCO)C2=CC=C(C=C2)Cl)N)C3=NC=NC4=C3C=CN4 [AZD5363]; details: max 10 µM
Summary of the method: as §1

[4] = compound: C[C@@H]1COCCN1C2=NC(=NC(=C2)C3(CC3)[S@](=N)(=O)C)C4=C5C=CNC5=NC=C4 [AZD6738]; details: max 10 µM
Summary of the method: as §1

[5] = compound: O=c1[nH]cc(F)c(=O)[nH]1 [5-Fluorouracil]; details: max 20 µM
Summary of the method: as §1

[6] = compound: N#Cc1cnc(Nc2cc(NC[C@H]3CNCCO3)c(C(F)(F)F)cn2)cn1 [SRA737]; details: max 10 µM
Summary of the method: as §1

[7] = compound: COc1cc2ncnc(Nc3ccc(F)c(Cl)c3)c2cc1OCCCN1CCOCC1 [Gefitinib]; details: max 10 µM
Summary of the method: as §1

[8] = compound: Cn1cnc2c(F)c(Nc3ccc(Br)cc3Cl)c(C(=O)NOCCO)cc21 [Selumetinib]; details: max 10 µM
Summary of the method: as §1

[9] = compound: COc1cc([C@@H]2c3cc4c(cc3[C@@H](O[C@@H]3O[C@@H]5CO[C@@H](C)O[C@H]5[C@H](O)[C@H]3O)[C@H]3COC(=O)[C@H]23)OCO4)cc(OC)c1O [Etoposide]; details: max 10 µM
Summary of the method: as §1

[10] = compound: COc1cccc2c1C(=O)c1c(O)c3c(c(O)c1C2=O)C[C@@](O)(C(=O)CO)C[C@@H]3O[C@H]1C[C@H](N)[C@H](O)[C@H](C)O1 [Doxorubicin]; details: max 1 µM
Summary of the method: as §1

[11] = compound: C[C@@H](Oc1cc(-c2cnn(C3CCNCC3)c2)cnc1N)c1c(Cl)ccc(F)c1Cl [Crizotinib]; details: max 10 µM
Summary of the method: as §1

[12] = compound: C[C@@H](c1ccc2nccn2c1)n1nnc2ncc(-c3cnn(C)c3)nc21 [Savolitinib]; details: max 1 µM
Summary of the method: as §1

[13] = compound: Nc1ccn([C@@H]2O[C@H](CO)[C@@H](O)C2(F)F)c(=O)n1 [Gemcitabine]; details: max 0.3 µM
Summary of the method: as §1

[14] = compound: O=C(Nc1ccc2[nH]nc(-c3ccncc3)c2c1)[C@@H]1CCN(CC(=O)N2CCN(c3ccc(-c4ncccn4)cc3)CC2)C1; details: max 5 µM
Summary of the method: as §1

[15] = compound: NC1(c2ccc(-c3nc4ccn5c(=O)[nH]nc5c4cc3-c3ccccc3)cc2)CCC1 [MK-2206]; details: max 10 µM
Summary of the method: as §1

[16] = compound: COc1cccc(OCCCN)c1-c1cc(Nc2cnc(C#N)cn2)n[nH]1 [Prexasertib]; details: max 1 µM
Summary of the method: as §1

[17] = compound: C=CCn1c(=O)c2cnc(Nc3ccc(N4CCN(C)CC4)cc3)nc2n1-c1cccc(C(C)(C)O)n1 [AZD1775]
Summary of the method: as §1

[18] = compound: Cc1c2c(nn1C)CSCc1cc(n(C)n1)CSc1cc(c3ccccc3c1)OCCCc1c(C(=O)O)n(C)c3c-2c(Cl)ccc13 [AZD5991]; details: max 1 µM
Summary of the method: as §1

[19] = compound: CC1=C(C(=CC=C1)Cl)NC(=O)C2=CN=C(S2)NC3=CC(=NC(=N3)C)N4CCN(CC4)CCO [Dasatinib]; details: max 2 µM
Summary of the method: as §1

[20] = compound: CCc1c2c(nc3ccc(O)cc13)-c1cc3c(c(=O)n1C2)COC(=O)[C@]3(O)CC [SN-38]; details: max 0.3 µM
Summary of the method: as §1

[21] = compound: O=C(c1cc(Cc2n[nH]c(=O)c3ccccc23)ccc1F)N1CCN(C(=O)C2CC2)CC1 [Olaparib]; details: max 10 µM
Summary of the method: as §1

[22] = compound: CN(C)CCCOc1ccc(-c2ccc3ncc4c(c3c2)n(C2CCOCC2)c(=O)n4C)cn1 [AZD0156]
Summary of the method: as §1

[23] = compound: C1CC(C1)(C(=O)[O-])C(=O)[O-].N.N.[Pt+2] [Carboplatin]; details: max 10 µM
Summary of the method: as §1

[24] = compound: CS(=O)(=O)CCNCc1ccc(-c2ccc3ncnc(Nc4ccc(OCc5cccc(F)c5)c(Cl)c4)c3c2)o1 [Lapatinib]; details: max 10 µM
Summary of the method: as §1

[25] = compound: Cc1nc(-c2cn3c(n2)-c2ccc(-c4cnn(C(C)(C)C(N)=O)c4)cc2OCC3)n(C(C)C)n1 [Taselisib]; details: max 10 µM
Summary of the method: as §1

[26] = compound: Cc1cc2ncnn2cc1Nc1ncc2c(n1)n(C1CCOCC1)c(=O)n2C [AZD7648]; details: max 10 µM
Summary of the method: as §1

[27] = compound: CC(C)n1c(=O)n(C)c2cnc3cc(F)c(-c4ccc(OCCCN5CCCCC5)nc4)cc3c21 [AZD1390]; details: max 0.3 µM
Summary of the method: as §1

[28] = compound: CC1=CN2[C@@H](C1)C=NC3=CC(=C(C=C3C2=O)OC)OCCCCCOC4=C(C=C5C(=C4)N=C[C@@H]6CC(=CN6C5=O)C)OC [SG3199]; details: max 0.001 µM
Summary of the method: as §1

[29] = compound: CC(=O)c1c(C)c2cnc(Nc3ccc(N4CCNCC4)cn3)nc2n(C2CCCC2)c1=O [Palbociclib]; details: max 10 µM
Summary of the method: as §1

[30] = compound: CN(CC[C@H](CSC1=CC=CC=C1)NC2=C(C=C(C=C2)S(=O)(=O)NC(=O)C3=CC=C(C=C3)N4CCC(CC4)[C@H](C5=CC=CC=C5C6=CC=C(C=C6)Cl)O)S(=O)(=O)C(F)(F)F)CCO [AZD4320]; details: max 1 µM
Summary of the method: as §1

[31] = compound: COc1cc(Nc2ncc3c(n2)-c2ccc(Cl)cc2C(c2c(F)cccc2OC)=NC3)ccc1C(=O)O [Alisertib]; details: max 10 µM
Summary of the method: as §1

[32] = compound: COc1nnc2ccc(N3CCC(c4ccc(OCCN5CCN(C)C(=O)[C@H]5C)cc4)CC3)nn12 [AZD5153]; details: max 1 µM
Summary of the method: as §1

[33] = compound: CC(=O)Nc1cccc(-n2c(=O)n(C3CC3)c(=O)c3c(Nc4ccc(I)cc4F)n(C)c(=O)c(C)c32)c1 [Trametinib]; details: max 1 µM
Summary of the method: as §1

[34] = compound: CC1(C)CCC(CN2CCN(c3ccc(C(=O)NS(=O)(=O)c4ccc(NCC5CCOCC5)c([N+](=O)[O-])c4)c(Oc4cnc5[nH]ccc5c4)c3)CC2)=C(c2ccc(Cl)cc2)C1 [Venetoclax]; details: max 1 µM
Summary of the method: as §1

[35] = compound: CCN(CCO)CCCOc1ccc2c(Nc3cc(CC(=O)Nc4cccc(F)c4)[nH]n3)ncnc2c1 [AZD2811]; details: max 1 µM
Summary of the method: as §1

| Cell Line | IC50, cell viability 72 h [1] | IC50, cell viability 72 h [2] | IC50, cell viability 72 h [3] | IC50, cell viability 72 h [4] | IC50, cell viability 72 h [5] | IC50, cell viability 72 h [6] | IC50, cell viability 72 h [7] | IC50, cell viability 72 h [8] | IC50, cell viability 72 h [9] | IC50, cell viability 72 h [10] | IC50, cell viability 72 h [11] | IC50, cell viability 72 h [12] | IC50, cell viability 72 h [13] | IC50, cell viability 72 h [14] | IC50, cell viability 72 h [15] | IC50, cell viability 72 h [16] | IC50, cell viability 72 h ([17]; max 1 µM) | IC50, cell viability 72 h [18] | IC50, cell viability 72 h [19] | IC50, cell viability 72 h [20] | IC50, cell viability 72 h [21] | IC50, cell viability 72 h ([22]; max 1 µM) | IC50, cell viability 72 h [23] | IC50, cell viability 72 h [24] | IC50, cell viability 72 h [25] | IC50, cell viability 72 h [26] | IC50, cell viability 72 h [27] | IC50, cell viability 72 h [28] | IC50, cell viability 72 h [29] | IC50, cell viability 72 h [30] | IC50, cell viability 72 h [31] | IC50, cell viability 72 h [32] | IC50, cell viability 72 h [33] | IC50, cell viability 72 h [34] | IC50, cell viability 72 h [35] | IC50, cell viability 72 h ([17]; max 3 µM) | IC50, cell viability 72 h ([22]; max 3 µM) |
| --- | --- | --- | --- | --- | --- | --- | --- | --- | --- | --- | --- | --- | --- | --- | --- | --- | --- | --- | --- | --- | --- | --- | --- | --- | --- | --- | --- | --- | --- | --- | --- | --- | --- | --- | --- | --- | --- |
| SW48 (Colorectal Carcinoma) | > 10 µM | 0.00337 µM | > 10 µM | 7.01 µM | > 20 µM | > 10 µM | > 10 µM | > 10 µM | 0.517 µM | 0.0686 µM | 3.36 µM | > 1 µM | 0.0926 µM | 1.33 µM | > 10 µM | 0.117 µM | > 1 µM | > 1 µM | > 2 µM | 0.0133 µM | > 10 µM | > 1 µM | > 10 µM | 8.92 µM | 2.37 µM | > 10 µM | > 0.3 µM | > 0.001 µM | > 10 µM | > 1 µM | 0.0584 µM | 0.254 µM | 0.123 µM | > 1 µM | 0.0239 µM | – | – |
| SW948 (Colorectal Carcinoma) | > 10 µM | 0.0299 µM | 6.29 µM | > 10 µM | > 20 µM | > 10 µM | > 10 µM | 1.08 µM | > 10 µM | > 1 µM | 5.44 µM | > 1 µM | > 0.3 µM | 2.47 µM | > 10 µM | 0.136 µM | – | > 1 µM | > 2 µM | > 0.3 µM | > 10 µM | – | > 10 µM | > 10 µM | 0.343 µM | > 10 µM | > 0.3 µM | > 0.001 µM | > 10 µM | > 1 µM | 0.0444 µM | 0.918 µM | 0.0352 µM | > 1 µM | > 1 µM | 1.39 µM | > 3 µM |
| Saos-2 (Osteosarcoma) | > 10 µM | 0.0446 µM | > 10 µM | > 10 µM | > 20 µM | > 10 µM | > 10 µM | > 10 µM | 3.65 µM | 0.556 µM | 5.11 µM | > 1 µM | 0.0364 µM | > 5 µM | > 10 µM | 0.102 µM | – | > 1 µM | > 2 µM | 0.0109 µM | > 10 µM | – | > 10 µM | > 10 µM | 3.21 µM | > 10 µM | > 0.3 µM | > 0.001 µM | > 10 µM | > 1 µM | 9.26 µM | 0.887 µM | > 1 µM | > 1 µM | 0.971 µM | 1.23 µM | > 3 µM |
| WSU-DLCL2 (B-Cell Non-Hodgkin's Lymphoma) | 5.81 µM | 0.00448 µM | 0.253 µM | 2.69 µM | > 20 µM | > 10 µM | > 10 µM | > 10 µM | 0.73 µM | 0.0539 µM | 8.08 µM | > 1 µM | 0.0065 µM | > 5 µM | 1.67 µM | 0.0188 µM | – | 0.137 µM | > 2 µM | 0.00596 µM | > 10 µM | – | > 10 µM | > 10 µM | 2.7 µM | > 10 µM | > 0.3 µM | > 0.001 µM | 7.44 µM | 0.794 µM | 1.64 µM | 0.0559 µM | > 1 µM | > 1 µM | > 1 µM | 0.531 µM | 2.15 µM |
| YT (Other Blood Carcinomas) | > 10 µM | 0.0465 µM | > 10 µM | 3.17 µM | 0.808 µM | 4.81 µM | > 10 µM | > 10 µM | 0.374 µM | 0.511 µM | 8.37 µM | > 1 µM | 0.0365 µM | > 5 µM | > 10 µM | 0.0268 µM | – | 0.0494 µM | > 2 µM | 0.00413 µM | > 10 µM | – | > 10 µM | > 10 µM | 1.79 µM | 6.93 µM | > 0.3 µM | > 0.001 µM | 4.04 µM | > 1 µM | > 10 µM | 0.196 µM | > 1 µM | > 1 µM | > 1 µM | 0.442 µM | > 3 µM |
